Assay results: US20110039721A1, “METHOD FOR PREDICTION ABOUT CARCINOGENICITY OF SUBSTANCE IN RODENT” (Chemicals Evaluation and Research Institute, priority 2007, published 2011)

What was measured:
liver = conditions: in vivo; cited from earlier work
[1] = test system: mRNA expressed from the genes (A) to (D) in rat liver; assay: Behavior of genes (mRNA expression level, oligo-DNA microarray) in rat liver after 28-day oral administration; assay type: in vivo; conditions: rat liver, oral once daily 28 days
Summary of the method: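 Oral gavage, once daily × 28 days; male F344 SPF rats, 5 wk, n=4/group; vehicle controls given equal solvent volume. Liver excised day 28, total RNA purified. Significance: ≥1.5× or ≤1/1.5 of vehicle, direction concordant with other carcinogens.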

rodent = conditions: in vivo; cited from earlier work
[2] = (C), Unigene Rn.120914, defined direction +

Cc1ccc(N)cc1N [TS004, 2,4-Diaminotoluene]
Cr+: Liver carcinogenicity (liver)
+: Behavior of gene caused by administration of chemical substance, Gene No. 4846 ([1]; (A), Unigene Rn.144554, defined direction +) | Behavior of gene caused by administration of chemical substance, Gene No. 4218 ([1]; (A), Unigene Rn.167075, defined direction +, significant = 1.5 times or more or 1/1.5 or less of control) | Behavior of gene caused by administration of chemical substance, Gene No. 2026 ([1]; (A), Unigene Rn.167075, defined direction −) | Behavior of gene caused by administration of chemical substance, Gene No. 6182 ([1]; (A), Unigene Rn.5834, defined direction +) | Behavior of gene caused by administration of chemical substance, Gene No. 5600 ([1]; (A), Unigene Rn.9836, defined direction +) | Behavior of gene caused by administration of chemical substance, Gene No. 1494 ([1]; (B), Unigene Rn.1430, defined direction −) | Behavior of gene caused by administration of chemical substance, Gene No. 725 ([1]; (C), Unigene Rn.108075, defined direction −)
C+: Carcinogenicity (rodent)
−: Behavior of gene caused by administration of chemical substance, Gene No. 2045 ([1]; (B), Unigene Rn.19329, defined direction +) | Behavior of gene caused by administration of chemical substance, Gene No. 2203 ([1]; (B), Unigene Rn.21240, defined direction +) | Behavior of gene caused by administration of chemical substance, Gene No. 533 ([1]; (C), Unigene Rn.106184, defined direction +) | Behavior of gene caused by administration of chemical substance, Gene No. 1163 ([1]; (C), Unigene Rn.11766, defined direction +) | Behavior of gene caused by administration of chemical substance, Gene No. 4973 ([1]; (C), Unigene Rn.118529, defined direction −) | Behavior of gene caused by administration of chemical substance, Gene No. 4095 ([1]; (C), Unigene Rn.119024, defined direction −) | Behavior of gene caused by administration of chemical substance, Gene No. 1334 [1, 2] | Behavior of gene caused by administration of chemical substance, Gene No. 6620 [1, 2] | Behavior of gene caused by administration of chemical substance, Gene No. 6303 ([1]; (C), Unigene Rn.123063, defined direction −) | Behavior of gene caused by administration of chemical substance, Gene No. 5878 ([1]; (C), Unigene Rn.143213, defined direction −) | Behavior of gene caused by administration of chemical substance, Gene No. 1131 ([1]; (C), Unigene Rn.144946, defined direction −) | Behavior of gene caused by administration of chemical substance, Gene No. 1562 ([1]; (C), Unigene Rn.14744, defined direction −) | Behavior of gene caused by administration of chemical substance, Gene No. 1741 ([1]; (C), Unigene Rn.1647, defined direction −) | Behavior of gene caused by administration of chemical substance, Gene No. 893 ([1]; (C), Unigene Rn.164817, defined direction +) | Behavior of gene caused by administration of chemical substance, Gene No. 6026 ([1]; (C), Unigene Rn.167685, defined direction −) | Behavior of gene caused by administration of chemical substance, Gene No. 154 ([1]; (C), Unigene Rn.185941, defined direction −) | Behavior of gene caused by administration of chemical substance, Gene No. 1993 ([1]; (C), Unigene Rn.18728, defined direction −) | Behavior of gene caused by administration of chemical substance, Gene No. 813 ([1]; (C), Unigene Rn.201760, defined direction +) | Behavior of gene caused by administration of chemical substance, Gene No. 2494 ([1]; (C), Unigene Rn.23969, defined direction +) | Behavior of gene caused by administration of chemical substance, Gene No. 2546 ([1]; (C), Unigene Rn.24561, defined direction −) | Behavior of gene caused by administration of chemical substance, Gene No. 3776 ([1]; (C), Unigene Rn.43232, defined direction −) | Behavior of gene caused by administration of chemical substance, Gene No. 3929 ([1]; (C), Unigene Rn.4620, defined direction +) | Behavior of gene caused by administration of chemical substance, Gene No. 1119 ([1]; (C), Unigene Rn.9757, defined direction +) | Behavior of gene caused by administration of chemical substance, Gene No. 6742 ([1]; (C), Unigene Rn.9779, defined direction +) | Behavior of gene caused by administration of chemical substance, Gene No. 5634 ([1]; (C), Unigene Rn.9862, defined direction −) | Behavior of gene caused by administration of chemical substance, Gene No. 5726 ([1]; (D), Unigene Rn.9939, defined direction −)
